Laboratory results from patent US10722491B2, “Phenol compound and combination of same with a benzodiazepine fused to 1,4-dihydropyridine for treating diseases of the central nervous and vascular systems” (UNIVERSIDAD DE LA HABANA, priority 2016, dated 2020).

How the values were obtained:
[1] = Spectrophotometric evidence of interactions between KM-34 and Fe2+; format: physicochemical; details: 100 μM KM-34; FeCl2 50, 100 and 200 μM; pH 7.4
Description: FIG. 4. Maximum absorption data on UV-VIS (200-500 nm) of the 100 μM KM-34 in a mixture of 10 mM phosphate buffer (KH2PO4/ KOH) pH 7.4 and absolute ethanol 14:1 (v:v) and The absorbance in the presence of FeCl2 (50, 100 and 200 μM) dissolved in 10mM HCL.
In order to verify the existence of possible interactions between KM-34 and Fe2+ (through modifications in their spectra), the following results were obtained:
This could indicate possible interactions between Fe2+ and KM-34 where the ion is stabilized at Fe3+ by unsaturated ligands due to the stabilization of the larger crystalline field from an electron configuration d6 (Fe2+) to a d5 (Fe3+) (Hider et al., 1981, Hider et al., 1983). This justifies the response obtained in the oxidative degradation test of DR where it was observed that the KM-34 in these conditions seems to act more as a coordinator of Fe2+ than as a .OH scavenger.

PC12 cells [2] = test: Cytoprotection against FeSO4/AA damage in PC12 cells (MTT); format: cell-based
Description: FIG. 8. Cytoprotective effect of KM-34 (0.001-10 μM) against damage induced by FeSO4 (5 mmol/L) and ascorbic acid (AA, 2 mmol/L) in cultures of PC12 cells. Viability 1% live cells) was determined by the MTT assay. Cells were seeded at a density of 5×10^5 cells/mL in a 96-well plate. The KM-34 was added simultaneously to the addition of the mixture of FeSO 4 and AA. The culture was then allowed to incubate at 37° C, […] and 5% CO 2 for 4 hours. After this time the supernatant was removed and the cells were incubated with 20 μg of MTT for a further 2 hours and the absorbance at 450 nm was measured with reference to 630 nm. The results are expressed as percentage of live cells relative to the control (undamaged cells, 100% live cells. *Represents significant differences (p<0.05) with respect to FeSO4/AA control.
The FeSO4/AA system is a strong catalyst for oxidative reactions in cells such as PC12 leading to their death (Hiroi et al., 2005; Núñez et al., 2011). […] At concentrations greater than 1 μM the % cell survival was greater than 90% (FIG. 8).

[3] = test system: occlusion of the middle cerebral artery in rats; test: Transient middle cerebral artery occlusion, neurological deficit score; format: in vivo; details: 0.5 and 1 mg/kg oral, 1 hour after reperfusion
Description: FIG. 13. Acute treatment with KM-34 reduced the volume of infarction edema and deficit in rat behavior after 90 min of middle cerebral artery occlusion (MACA) and 23 hours of reperfusion. The different doses of the compound were administered orally 1 hour after reperfusion. (A) Representative brain coronal sections (2 mm thick) of the sham and ischemic groups treated with vehicle or KM-34 (0.1, 0.5 or 1 mg/kg) and stained with 2,3,5-triphenyltetrazolium (TTC) 2%. The red regions correspond to undamaged tissue and white to ischemic regions. (B) Quantitative analysis of cortical, subcortical and total lesion size. (C) Neurological deficit. The bars represent the mean ± SEM (n=8). Different letters in (A) and * in (B): p<0.05, by ANOVA and post hoc of Newman-Keuls. Scale=10 mm. […]
Transient cerebral ischemia was performed by the OACM, using the intraluminal filament method. […] After 23 hours of reperfusion, the neurological deficit was evaluated and the animals sacrificed to determine the infarct volume and perform the behavioral evaluations.
Neurological deficit was assessed according to a six-point scale: 0=no observable neurological deficit; 1=no extension of the left front leg; 2=shifts in circles to the left if the animal is suspended by the tail; 3=spontaneous displacements in circles to the left; 4=no spontaneous motor activity with decreased level of consciousness; 5=death.

PC12 cells [4] = test: Cytoprotection against L-glutamate damage in PC12 cells (MTT); format: cell-based; details: 50 mM L-glutamate
Description: FIG. 6. Cytoprotective effect of KM-34 10001-10 HM) against damage induced by L-glutamate (50 mmol/L) in cultures of PC12 cells. Viability (% live cells) was determined by the MTT assay. Cells were seeded at a density of 5×10^5 cells/mL in a 96-well plate. KM-34 was added simultaneously to the addition of L-glutamate. The culture was then allowed to incubate at 37° C, […] and 5% CO 2 for 4 hours. After this time the supernatant was removed and the cells were incubated with 20 μg of MTT for an additional 2 hours and the absorbance at 450 nm was measured with reference to 630 nm. The results are expressed as percentage of live cells relative to the control (cells without damage, 100% of live cells. * Represents significant differences (p<0.05) with respect to the L-glutamate control.
FIG. 14. The survival rate for […] administered 50 mM Glutamate is shown. The control group was not administered 50 mM Glutamate. The remaining four groups were administered 50 mM Glutamate. The “Glu 50 mM” group was not administered any compounds of the invention. The “JM 0.01 μM” group was administered 0.01 μM JM-20. The “KM 0.01 μM” group was administered 0.01 μM KM-34. The “JM 0.01 μM+KM 0.01 μM” group was administered 0.01 μM JM-20 and 0.01 μM KM-34.
At values above 1 μM KM-34, the cytoprotection response is greater than 80%.

With CC1(C)OC(=O)C(=Cc2ccc(O)c(O)c2)C(=O)O1 [KM-34, 5-[(3,4-dihydroxyphenyl)methylidene]-2,2-dimethyl-1,3-dioxane-4,6-dione] the “Absorbance of KM-34 at absorption maxima 262, 345 and 472 nm in presence of Fe2+” value [1] was “is modified as the concentration of the ferrous ion increases”, the “Concentration showing cytoprotective effects against FeSO4/AA” value (PC12 cells [2]; FeSO4 5 mmol/L and AA 2 mmol/L, 4 hours) was “higher than 0.001 μM” and the “Cells surviving oxidizing conditions” value (PC12 cells [2]; FeSO4/AA, concentrations between 0.01-10 μM) was 90 out of 100 cells. The “% cell survival” value (PC12 cells [2]; FeSO4/AA, concentrations greater than 1 μM) was “greater than 90%”, the “Neurological deficit (neurological score)” value [3] was “significantly improved (p<0.05) the neurological deficit” and the “Concentration significantly (P<0.01) inhibiting cell damage by L-glutamate” value (PC12 cells [4]; 4 hours) was “greater than 0.01 μM”. The Cytoprotection response (PC12 cells [4]; above 1 μM KM-34) was “greater than 80%”.
